Values joined by “and” are separate entries in the source; they are usually repeats but may differ in a detail not shown here. Equal entries are not always repeated.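 Results reflect a 48-hour exposure of cells in 96-well plates to compound at five concentrations. GI50 is the concentration that inhibits growth by half. TGI: total growth inhibition.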

For this assay, the system named is MDA-MB-468 breast. Briefly: inhibition of tumour cell growth, NCI panel, 48 h.
`COc1cc2ncn(-c3cc(O[C@H](C)c4ccccc4Cl)c(C(N)=O)s3)c2cc1OC`: the GI50 is 7.89 nM and the TGI is 4000 nM.

For `COc1cc(NCCCCCN=C(N)N)c2ncccc2c1`, the GI50 was 78 nM and the TGI is 344 nM.

`CCCCN1CCN(c2ccc3nc(-c4ccc5nc(-c6ccc(OC)c(OC)c6)[nH]c5c4)[nH]c3c2)CC1`: the GI50 was 370 nM and the TGI was 1330 nM. Turning to `COc1ccc2[nH]c(-c3ccccc3)c(/C=C(\C#N)S(=O)(=O)c3ccccc3)c2c1`, the GI50 was 4170 nM and the TGI is over 100000 nM. With `O=C(N/N=C\c1ccc(Cl)cc1)c1ccc2nc(-c3ccc(Br)cc3)[nH]c2c1`, the GI50 is 2020 nM and the TGI was 3860 nM. In the case of `CN1CCc2c(c3ccccc3c3ccccc23)C1`, the GI50 was 2220 nM and the TGI was found to be 9940 nM.

As to `Fc1cnc(NC2CC2)nc1-c1cnc2ccc(N3CCOCC3)cn12`, the GI50 is 182 nM and the TGI came to 429 nM. Consider `Nc1cc(-c2c[nH]c3ccc(Br)cc23)nc2cc(-c3c[nH]c4ccc(Br)cc34)nn12`, for which the GI50 was 1590 nM and the TGI turned out to be 3160 nM. On to `O=NN(CCCl)C(=O)NCCCl`, for which the TGI was 146000 nM and > 500000 nM. Take `O=c1c2ccc3cccc4c(=O)c5ccc6cccc1c6c5-c2c34`: the GI50 is over 50000 nM and the TGI is over 50000 nM. With `O=C(N/N=C/c1ccccc1O)c1ccccc1O`, the GI50 is 427 nM and the TGI was 5560 nM. As for `CC(=O)O[C@H]1CCC2(C)C(=CCC3C2CCC2(C)/C(=N/OC(=O)c4ccc(N(CCCl)CCCl)cc4)CCC32)C1` (stereo not given in full), the GI50 was 31100 nM and the TGI was over 100000 nM.

For `O=C1C=CC(=O)N1C1CCCCCCCCCCC1`, the GI50 is 2210 nM and the TGI was 6800 nM. Take `Nc1nc2c(c3ncccc13)C(c1cccc(Br)c1)Cc1ncccc1-2` (stereo not given): the GI50 is 349 nM and the TGI is 7660 nM.

On to `CN(C)CCCOc1ccc(OCCCN(C)C)c2c1C(=O)c1ccccc1C2=O`, for which the GI50 was 580 nM and the TGI came to 2950 nM. `CCOc1ccccc1NC1=C(Cl)C(=O)c2nc(C)ccc2C1=O`: the GI50 was 1450 nM and the TGI came out at 2880 nM. In the case of `CCn1cc(C(=O)O)c(=O)c2cc(F)c(N3CCN(S(=O)(=O)c4ccc(Cl)cc4)CC3)cc21`, the GI50 is 2100 nM and the TGI turned out to be 6240 nM. Turning to `COc1ccc(C(=O)c2cc(OC)c3c(c2)OCO3)cc1O`, the GI50 was 366 nM and the TGI turned out to be 3350 nM. Regarding `O=C(Nc1cccc(-n2cc(-c3ccncc3)c(-c3ccc(Cl)c(O)c3)n2)c1)Nc1ccc(Cl)c(C(F)(F)F)c1`, the GI50 is 547 nM and the TGI was found to be 2230 nM. For `O=c1c2cc(F)ccc2sc2c(N3CCNCC3)nc3ccccc3c12`, the GI50 is 1580 nM and the TGI came out at 3190 nM. On to `CCOc1nc(-c2ccccc2)cc2c(O)c(C(=O)N/N=C/c3ccc(O)cc3O)[nH]c(=O)c12`, for which the GI50 was 2490 nM and the TGI is 56700 nM. Turning to `CC(=O)Nc1cccc(Nc2nc(N[C@@H](C)c3ccccc3)c3ccccc3n2)c1`, the GI50 was 229 nM and the TGI was determined as 818 nM. The like results for `CCc1ccc(CNCC(O)c2ccccc2)cc1` (stereo not given) were, in that order, 13200 nM and 28200 nM. In the same order, the values of `C[C@@H]1C[N+]2([O-])[C@H]3C4=CCC[C@@H]4CC[C@H]3[C@@]3(C)OC(=O)CC[C@]34CC[C@H]1[C@@H]42` (stereo not given in full) are over 60000 nM and over 60000 nM. `O=C1Nc2cc(Cl)ccc2/C1=C\c1c(-c2ccc(F)cc2)nc2ccccn12`: the GI50 is 448 nM and the TGI was 2250 nM.

Turning to `O=C1c2ccccc2-c2nnc(-c3ccc(Br)cc3)cc21`, the GI50 is over 100000 nM and the TGI is over 100000 nM. For the compound `CCOC(=O)N1C/C(=C/c2ccc(F)cc2)C(=O)/C(=C/c2ccc(F)cc2)C1`, the GI50 was 1260 nM and the TGI turned out to be 2900 nM. With `O=C(Nc1ccc(CN2CCOCC2)cc1)c1ccc(-c2cc(Cl)ccc2Cl)o1`, the GI50 is 4520 nM and the TGI worked out at 25800 nM.

For `O=C(Nc1cccc(Cl)c1)Nc1nc2ccc([N+](=O)[O-])cc2s1`, the GI50 was 1040 nM and the TGI came to 3250 nM.

Consider `O=C(/C=C/c1ccc(Cl)cc1)/C=C/c1cc2ccccc2[nH]c1=O`, for which the GI50 is 2350 nM and the TGI came to 6010 nM.

Take `CCCS(=O)(=O)Nc1ccc(F)c(C(=O)c2c[nH]c3ncc(Cl)cc23)c1F`: the GI50 was 7640 nM and the TGI amounted to 49500 nM.

Turning to `CN1CCN(CCCOc2ccc3nc(Nc4cc(Cl)cc(Cl)c4)ccc3c2)CC1`, the GI50 is 1600 nM and the TGI was 3250 nM. As for `CCN1CCN(c2cc(C)nc(N(CCNc3ccnc4cc(Cl)ccc34)Cc3ccc4c(c3)OCO4)n2)CC1`, the GI50 is 534 nM and the TGI came to 2140 nM.
